Data taken from patent publication US20040224958A1, “Pyridopyrimidinone derivatives for treatment of neurodegenerative disease” (priority 2000, published 2004).

SMILES | melting point
CC1CN(c2ccc(Nc3ncc4ccc(=O)n(C5CCCCC5)c4n3)cc2)CC(C)N1CCO (stereo not drawn) [Example 143, 8-Cyclohexyl-2-{4-[4-(2-hydroxy-ethyl)-3,5-dimethyl-piperazin-1-yl]-phenylamino}-8H-pyrido[2,3-d]pyrimidin-7-one] | 175 to 177 °C
O=c1ccc2cnc(Nc3cccc(N4CCCCC4)c3)nc2n1C1CCCCCC1 [Example 201, 8-Cycloheptyl-2-(3-piperidin-1-yl-phenylamino)-8H-pyrido[2,3-d]pyrimidin-7-one] | 123 to 124 °C
O=c1ccc2cnc(Nc3ccc(N4CCCCC4)cc3)nc2n1C1CCCC1O (stereo not drawn) [Example 242, 8-(2-Hydroxy-cyclopentyl)-2-(4-piperidin-1-yl-phenylamino)-8H-pyrido[2,3-d]pyrimidin-7-one] | 230 to 232 °C
O=c1ccc2cnc(Nc3ccc(N4CCC(CCCN5CCOCC5)CC4)cc3)nc2n1C1CC2CCC1C2 (stereo not drawn) [Example 217, 8-Bicyclo[2.2.1]hept-2-yl-2-[4-[4-(3-morpholin-4-yl-propyl)-piperidin-1-yl]-phenylamino]-8H-pyrido[2,3-d]pyrimidin-7-one] | 185 to 186 °C
O=c1ccc2cnc(Nc3ccc(N4CCCCC4)cc3)nc2n1CC1CCCCC1 [Example 183, 8-Cyclohexylmethyl-2-(4-piperidin-1-yl-phenylamino)-8H-pyrido[2,3-d]pyrimidin-7-one] | 212 to 213 °C
O=c1ccc2cnc(Nc3ccc(N4CCC(CCO)CC4)cc3)nc2n1C1CCCCC1 [Example 216, 8-Cyclohexyl-2-{4-[4-(2-hydroxy-ethyl)-piperidin-1-yl]-phenylamino}-8H-pyrido[2,3-d]pyrimidin-7-one] | 236 to 237 °C
O=c1ccc2cnc(Nc3ccc(N4CCC(CCN5CCOCC5)CC4)cc3)nc2n1C1CC2CCC1C2 (stereo not drawn) [Example 259, 8-Bicyclo[2.2.1]hept-2-yl-2-[4-[4-(2-morpholin-4-yl-ethyl)-piperidin-1-yl]-phenylamino]-8H-pyrido[2,3-d]pyrimidin-7-one] | 223 to 224 °C
O=c1ccc2cnc(Nc3ccc(N4CCCC(CCCN5CCOCC5)C4)cc3)nc2n1C1CC2CCC1C2 (stereo not drawn) [Example 262, 8-Bicyclo[2.2.1]hept-2-yl-2-{4-[3-(3-morpholin-4-yl-propyl)-piperidin-1-yl]-phenylamino}-8H-pyrido[2,3-d]pyrimidin-7-one] | 156 to 157 °C
CCN(CC)CCOc1ccc(Nc2ncc3ccc(=O)n(C4CCCCC4)c3n2)cc1C [Example 150, 8-Cyclohexyl-2-[4-(2-diethylamino-ethoxy)-3-methyl-phenylamino]-8H-pyrido[2,3-d]pyrimidin-7-one] | 119 to 121 °C
O=c1ccc2cnc(Nc3ccc(N4CCCCC4)cc3)nc2n1CCCOC1CCCCO1 (stereo not drawn) [Example 158] | 85 to 86 °C
O=c1ccc2cnc(Nc3ccc(N4CCCC(O)C4)cc3)nc2n1C1CCCC1 (stereo not drawn) [Example 206, 8-Cyclopentyl-2-[4-(3-hydroxy-piperidin-1-yl)-phenylamino]-8H-pyrido[2,3-d]pyrimidin-7-one] | 178 to 179 °C
O=c1ccc2cnc(Nc3ccc(N4CCCCC4CO)cc3)nc2n1C1CCCC1 (stereo not drawn) [Example 207, 8-Cyclopentyl-2-[4-(2-hydroxymethyl-piperidin-1-yl)-phenylamino]-8H-pyrido[2,3-d]pyrimidin-7-one] | 135 to 136 °C
CCNc1nc(Nc2ccccc2)ncc1C(C)=CC(=O)OCC [Example 73, 3-(4-Ethylamino-2-phenylamino-pyrimidin-5-yl)-but-2-enoic acid ethyl ester] | 148 to 150 °C
CCN(CC)CCOc1ccc(Nc2ncc3ccc(=O)n(C4CCCCCC4)c3n2)cc1 [Example 156, 8-Cycloheptyl-2-[4-(2-diethylamino-ethoxy)-phenylamino]-8H-pyrido[2,3-d]pyrimidin-7-one] | 121 to 122 °C
Nc1ncc2ccc(=O)n(C3CCCCC3)c2n1 [Example 226, 2-Amino-8-cyclohexyl-8H-pyrido[2,3-d]pyrimidin-7-one] | 155 °C
O=c1ccc2cnc(NC3CCCCC3)nc2n1C1CCCCC1 [Example 153, 8-Cyclohexyl-2-cyclohexylamino-8H-pyrido[2,3-d]pyrimidin-7-one] | 169 to 170 °C
O=c1ccc2cnc(Nc3ccc(N4CCSCC4)cc3)nc2n1C1CCCCC1 [Example 177, 8-Cyclohexyl-2-(4-thiomorpholin-4-yl-phenylamino)-8H-pyrido[2,3-d]pyrimidin-7-one] | 213 to 214 °C
O=c1ccc2cnc(Nc3ccc(N4CCCCC4)cc3)nc2n1C1CCCCC1 [Example 142, 8-Cyclohexyl-2-(4-piperidin-1-yl-phenylamino)-8H-pyrido[2,3-d]pyrimidin-7-one] | 198 to 200 °C
CN(C)CCCN1CCN(c2ccc(Nc3ncc4ccc(=O)n(C5CC6CCC5C6)c4n3)cc2)CC1 (stereo not drawn) [Example 230, 8-Bicyclo[2.2.1]hept-2-yl-2-{4-[4-(3-dimethylamino-propyl)-piperazin-1-yl]-phenylamino}-8H-pyrido[2,3-d]pyrimidin-7-one] | 212 to 213 °C

The next lines start with the values.

melting point | SMILES
230 to 231 °C | O=c1ccc2cnc(Nc3ccccc3)nc2n1CC1CCCCC1 [Example 182, 8-Cyclohexylmethyl-2-phenylamino-8H-pyrido[2,3-d]pyrimidin-7-one]
163 to 164 °C | CCCn1c(=O)ccc2cnc(Nc3ccccc3)nc21 [Example 41, 2-Phenylamino-8-propyl-8H-pyrido[2,3-d]pyrimidin-7-one]
155 to 156 °C | Cn1c(=O)ccc2cnc(NCCc3ccccn3)nc21 [Example 66, 8-Methyl-2-(2-pyridin-2-yl-ethylamino)-8H-pyrido[2,3-d]pyrimidin-7-one]
198 to 199 °C | O=c1ccc2cnc(Nc3ccc(F)cc3)nc2n1C1CCCCCC1 [Example 184, 8-Cycloheptyl-2-(4-fluoro-phenylamino)-8H-pyrido[2,3-d]pyrimidin-7-one]
153 °C | CC(C)n1c(=O)ccc2cnc(N)nc21 [Example 257, 2-Amino-8-isopropyl-8H-pyrido[2,3-d]pyrimidin-7-one]
207 to 208 °C | CCn1c(=O)ccc2cnc(Nc3ccc(-c4ccccc4)cc3)nc21 [Example 49, 2-(Biphenyl-4-ylamino)-8-ethyl-8H-pyrido[2,3-d]pyrimidin-7-one]
70 to 72 °C | CCN(CC)CCOc1ccc(Nc2ncc3ccc(=O)n(CCCOCc4ccccc4)c3n2)cc1 [Example 116, 8-(3-Benzyloxy-propyl)-2-[4-(2-diethylamino-ethoxy)-phenylamino]-8H-pyrido[2,3-d]pyrimidin-7-one]
234 to 235 °C | O=c1ccc2cnc(Nc3ccc(-n4cccn4)cc3)nc2n1C1CC2CCC1C2 (stereo not drawn) [Example 218, 8-Bicyclo[2.2.1]hept-2-yl-2-(4-pyrazol-1-yl-phenylamino)-8H-pyrido[2,3-d]pyrimidin-7-one]
226 to 228 °C | CC(C)n1c(=O)ccc2cnc(Nc3ccc(O)cc3)nc21 [Example 112, 2-(4-Hydroxy-phenylamino)-8-isopropyl-8H-pyrido[2,3-d]pyrimidin-7-one]
192 °C | O=c1ccc2cnc(Nc3cccc(OC(F)(F)C(F)F)c3)nc2n1C1CC2CCC1C2 (stereo not drawn) [Example 213, 8-Bicyclo[2.2.1]hept-2-yl-2-[3-(1,1,2,2-tetrafluoro-ethoxy)-phenylamino]-8H-pyrido[2,3-d]pyrimidin-7-one]
197 to 198 °C | O=c1ccc2cnc(Nc3ccc(-n4cccn4)cc3)nc2n1C1CCCC1 [Example 191, 8-Cyclopentyl-2-(4-pyrazol-1-yl-phenylamino)-8H-pyrido[2,3-d]pyrimidin-7-one]
225 to 226 °C | O=c1ccc2cnc(Nc3ccccc3)nc2n1C1CC2CCC1C2 (stereo not drawn) [Example 180, 8-Bicyclo[2.2.1]hept-2-yl-2-phenylamino-8H-pyrido[2,3-d]pyrimidin-7-one]
148 to 150 °C | CN1CCN(c2ccc(Nc3ncc4ccc(=O)n(CCCOCc5ccccc5)c4n3)cc2)CC1 [Example 115, 8-(3-Benzyloxy-propyl)-2-[4-(4-methyl-piperazin-1-yl)-phenylamino]-8H-pyrido[2,3-d]pyrimidin-7-one]
156 to 158 °C | O=c1ccc2cnc(Nc3ccccc3)nc2n1C1CCCCCC1 [Example 155, 8-Cycloheptyl-2-phenylamino-8H-pyrido[2,3-d]pyrimidin-7-one]
175 to 176 °C | O=c1ccc2cnc(Nc3ccccc3)nc2n1CCCOc1ccccc1 [Example 87, 8-(3-Phenoxypropyl)-2-phenylamino-8H-pyrido[2,3-d]pyrimidin-7-one]
259 to 262 °C | CN1CCN(c2ccc(Nc3ncc4ccc(=O)n(-c5ccccc5)c4n3)cc2)CC1 [Example 113, 2-[4-(4-Methyl-piperazin-1-yl)-phenylamino]-8-phenyl-8H-pyrido[2,3-d]pyrimidin-7-one]
244 to 246 °C | CCNc1nc(Nc2ccccc2)ncc1C=CC#N [Example 72, 3-(4-Ethylamino-2-phenylamino-pyrimidin-5-yl)acrylonitrile]
160 to 162 °C | Cn1c(=O)ccc2cnc(NCc3ccccc3)nc21 [Example 63, 2-Benzylamino-8-methyl-8H-pyrido[2,3-d]pyrimidin-7-one]
96 to 97 °C | CCn1c(=O)ccc2cnc(NCc3ccccc3)nc21 [Example 44, 2-Benzylamino-8-ethyl-8H-pyrido[2,3-d]pyrimidin-7-one]
194 to 195 °C | CCNc1ncc2ccc(=O)n(C)c2n1 [Example 65, 2-Ethylamino-8-methyl-8H-pyrido[2,3-d]pyrimidin-7-one]
170 to 171 °C | CC(C)n1c(=O)ccc2cnc(Nc3ccccc3)nc21 [Example 43, 8-Isopropyl-2-phenylamino-8H-pyrido[2,3-d]pyrimidin-7-one]
118 to 119 °C | CC(C)n1c(=O)ccc2cnc(Nc3ccc(OCCN4CCOCC4)cc3)nc21 [Example 141, 8-Isopropyl-2-[4-(2-morpholin-4-yl-ethoxy)-phenylamino]-8H-pyrido[2,3-d]pyrimidin-7-one]
165 °C | COc1ccc(CNc2ncc3ccc(=O)n(C4CCCCC4)c3n2)cc1 [Example 225, 8-Cyclohexyl-2-(4-methoxy-benzylamino)-8H-pyrido[2,3-d]pyrimidin-7-one]
